Like-named read-outs stand apart in the source and are kept apart here.
What was measured:
[1] = target: GDP-bound KRAS wild-type protein (Homo sapiens, UniProt P01116); assay: Binding to KRAS by surface plasmon resonance (SPR), dissociation constant KD
Procedure, shortened: (§1)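 Measured at 30°C: SPR with GDP-loaded, E. coli-expressed biotin-Avi RAS captured (~100–300 RU), ascending 75 s compound injections, HBS pH 7.4 with GDP, MgCl2, 4% DMSO. KD from 1:1 fit.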

[2] = target: GDP-bound NRAS wild-type protein (Homo sapiens, UniProt P01111); assay: Binding to NRAS by surface plasmon resonance (SPR), KD and KD ratio to KRAS
Procedure, shortened: as §1

HRAS wild-type protein = HRAS wild-type protein (Homo sapiens, UniProt P01112); assay: Binding to HRAS by surface plasmon resonance (SPR), KD and KD ratio to KRAS
Procedure, shortened: as §1

[3] = test system: human lung cancer strain NCI-H441; assay: NCI-H441 cell proliferation inhibitory activity (CellTiter-Glo, 4 days); type: cell-based; details: read-out: NCl-H441 IC50
Procedure, shortened: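 Signal came from […] measured per well once the reagent was added. Beforehand, cells were cultured at 37°C and 5% carbon dioxide on a compound series serially diluted in dimethyl sulfoxide.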

[4] = Single Cycle Kinetics, 1:1 binding model
[5] = ratio of KD with respect to GDP-bound NRAS wild-type protein to KD with respect to KRAS
[6] = ratio of KD with respect to HRAS wild-type protein to KD with respect to KRAS
[7] = 50% proliferation inhibitory concentration, four days
[8] = ratio of KD for GDP-bound NRAS wild-type protein to KD for KRAS
[9] = ratio of KD for HRAS wild-type protein to KD for KRAS

GDP-bound KRAS wild-type protein, sequence (P01116 1-188 isoform P01116-2): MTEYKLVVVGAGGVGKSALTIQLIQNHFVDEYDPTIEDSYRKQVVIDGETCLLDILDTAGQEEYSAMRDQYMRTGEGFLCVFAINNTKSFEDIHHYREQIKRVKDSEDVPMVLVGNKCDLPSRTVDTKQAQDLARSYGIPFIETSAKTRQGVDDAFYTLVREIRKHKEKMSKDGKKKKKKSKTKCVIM
HRAS wild-type protein, sequence (P01112 whole entry): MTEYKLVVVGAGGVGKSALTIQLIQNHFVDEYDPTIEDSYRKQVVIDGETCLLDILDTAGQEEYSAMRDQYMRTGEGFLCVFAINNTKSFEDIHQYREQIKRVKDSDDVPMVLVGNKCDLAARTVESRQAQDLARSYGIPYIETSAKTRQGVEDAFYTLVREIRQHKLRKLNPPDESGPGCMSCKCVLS
GDP-bound NRAS wild-type protein, sequence (P01111 whole entry): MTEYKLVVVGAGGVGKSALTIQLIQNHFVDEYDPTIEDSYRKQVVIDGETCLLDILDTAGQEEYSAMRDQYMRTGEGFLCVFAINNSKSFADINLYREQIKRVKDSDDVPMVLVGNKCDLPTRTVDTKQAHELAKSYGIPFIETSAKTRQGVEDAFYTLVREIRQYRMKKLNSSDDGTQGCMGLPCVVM

| Structure (SMILES) | Kd [1, 4] | NRAS /KRAS [2, 5] | HRAS /KRAS (HRAS wild-type protein; [6]) | IC50 [3, 7] | Kd ([1]; Single Cycle Kinetics) | NRAS /KRAS [2, 8] | HRAS /KRAS (HRAS wild-type protein; [9]) | IC50 ([3]; NCI-H441 cells, 4 days) | Kd ([1]; 1:1 binding model) |
| --- | --- | --- | --- | --- | --- | --- | --- | --- | --- |
| CC[C@H](C)[C@@H]1NC(=O)[C@H](CC)N(C)C(=O)C[C@@H](C(=O)N(C)C)N(C)C(=O)[C@H](C2CCCC2)N(C)C(=O)C2(CCCC2)NC(=O)[C@@H]2CCCN2C(=O)[C@H](CCc2cc(F)c(C(F)(F)F)c(F)c2)NC(=O)CN(C)C(=O)[C@H](Cc2ccc(C(F)(F)F)cc2)N2CC/C=C\C[C@@H](C2=O)N(C)C(=O)CN(C)C1=O [PP1273] | 0.12 nM | A (a compound having 10 or more and less than 20 is denoted as A) | B (a compound having 3 or more and less than 10 is denoted as B) | 16.5 nM |  |  |  |  |  |
| CCO[C@@H]1C[C@H]2C(=O)NC3(CCC3)C(=O)N(C)[C@@H](C3CCCC3)C(=O)N(C)[C@H](C(=O)N3CCOCC3)CC(=O)N(C)[C@@H](CC)C(=O)N[C@@H]([C@@H](C)CC)C(=O)N(C)CC(=O)N(C)[C@H]3C[C@@H](C)[C@@H](C)CN(C3=O)[C@@H](Cc3ccc(C(F)(F)F)cc3)C(=O)N(C)CC(=O)N[C@@H](CCc3ccc(C(F)(F)F)c(Cl)c3)C(=O)N2C1 [PP1360] | 0.055 nM | A (a compound having 10 or more and less than 20 is denoted as A) | B (a compound having 3 or more and less than 10 is denoted as B) | 4.9 nM |  |  |  |  |  |
| CCC[C@H]1C(=O)N[C@@H](C23CC(C2)C3)C(=O)N2CCC[C@H]2C(=O)N(C)[C@H]2C/C=C\CCN(C2=O)[C@@H](Cc2ccc(C(F)(F)F)cc2)C(=O)N(C)CC(=O)N[C@@H](CCc2ccc(C(F)(F)F)c(OC)c2)C(=O)N2C[C@H](OCC)C[C@H]2C(=O)N(C)C2(CCC2)C(=O)N(C)[C@@H](C2CCCC2)C(=O)N(C)[C@H](C(=O)N(C)C)CC(=O)N1C [PP3343] |  |  |  |  | 2.4 nM | A (a compound having 10 or more and less than 20 is denoted as A) | A (a compound having 10 or more and less than 20 is denoted as A) | 29.3 nM |  |
| CCC[C@H]1C(=O)N[C@@H](C2CCCC2)C(=O)N(C)CC(=O)N(C)[C@H]2C/C=C\CCN(C2=O)[C@@H](Cc2ccc(C)cc2)C(=O)N(C)CC(=O)N[C@@H](CCc2ccc(C(F)(F)F)c(Cl)c2)C(=O)N2CC3(CC3)C[C@H]2C(=O)NC2(CCC2)C(=O)N(C)[C@@H]([C@@H](C)CC)C(=O)N(C)[C@H](C(=O)N(C)C)CC(=O)N1C [PP3434] |  |  |  |  | 0.76 nM | A (a compound having 10 or more and less than 20 is denoted as A) | A (a compound having 10 or more and less than 20 is denoted as A) | 26.8 nM |  |
| C#CCN1CC(=O)N(C)[C@H]2C/C=C\CCN(C2=O)[C@@H](Cc2ccc(C)cc2)C(=O)N(C)CC(=O)N[C@@H](CCc2ccc(C(F)(F)F)c(Cl)c2)C(=O)N2C[C@H](OCC)C[C@H]2C(=O)NC2(CC(C)(C)C2)C(=O)N(C)[C@@H](C2CCCC2)C(=O)N(C)[C@H](C(=O)N(C)C)CC(=O)N(C)[C@@H](CCC)C(=O)N[C@@H](CC(C)C)C1=O [PP2526] |  |  |  |  |  | A (a compound having 10 or more and less than 20 is denoted as A) | B (a compound having 3 or more and less than 10 is denoted as B) | 54.5 nM | 4 nM |
| CCO[C@@H]1C[C@H]2C(=O)NC3(CCC3)C(=O)N(C)[C@@H](C3CCCC3)C(=O)N(C)[C@H](C(=O)N3CCCCC3)CC(=O)N(C)[C@@H](CC(C)C)C(=O)N[C@@H]([C@@H](C)CC)C(=O)N(C)CC(=O)N(C)[C@H]3C/C=C\CCN(C3=O)[C@@H](Cc3ccc(C(F)(F)F)cc3)C(=O)N(C)CC(=O)N[C@@H](CCc3cc(F)c(C(F)(F)F)c(F)c3)C(=O)N2C1 [PP1290] | 0.24 nM | AA (a compound having 20 or more is denoted as AA) | A (a compound having 10 or more and less than 20 is denoted as A) | 15.4 nM |  |  |  |  |  |
| CCC[C@H]1C(=O)N[C@@H]([C@@H](C)CC)C(=O)N(C)CC(=O)N(C)[C@H]2C/C=C\CCN(C2=O)[C@@H](Cc2ccc(C)cc2)C(=O)N(C)CC(=O)N[C@@H](CCc2ccc(C(F)(F)F)c(Cl)c2)C(=O)N2CC3(CC3)C[C@H]2C(=O)N(C)C2(CCC2)C(=O)N(C)[C@@H](C(CC)CC)C(=O)N(C)[C@H](C(=O)N(C)C)CC(=O)N1C [PP3300] |  |  |  |  | 0.13 nM | A (a compound having 10 or more and less than 20 is denoted as A) | B (a compound having 3 or more and less than 10 is denoted as B) | 11.2 nM |  |
| CCO[C@@H]1C[C@H]2C(=O)NC3(CCCC3)C(=O)N(C)[C@@H](C3CCCC3)C(=O)N(C)[C@H](C(=O)N(C)C)CC(=O)N(C)[C@@H](CC)C(=O)N[C@@H]([C@@H](C)CC)C(=O)N(C)CC(=O)N(C)[C@H]3C[C@@H](C)[C@@H](C)CN(C3=O)[C@@H](Cc3ccc(C(F)(F)F)cc3)C(=O)N(C)CC(=O)N[C@@H](CCc3cc(F)c(C(F)(F)F)c(F)c3)C(=O)N2C1 [PP1352] | 0.024 nM | A (a compound having 10 or more and less than 20 is denoted as A) | B (a compound having 3 or more and less than 10 is denoted as B) | 4.6 nM |  |  |  |  |  |
| CC[C@H](C)[C@@H]1NC(=O)[C@H](CC)N(C)C(=O)C[C@@H](C(=O)N(C)C)N(C)C(=O)[C@H](C2CCCC2)N(C)C(=O)C2(CCC2)NC(=O)[C@@H]2C[C@H](F)CN2C(=O)[C@H](CCc2cc(F)c(C(F)(F)F)c(F)c2)NC(=O)CN(C)C(=O)[C@H](Cc2ccc(C(F)(F)F)cc2)N2CC/C=C\C[C@@H](C2=O)N(C)C(=O)CN(C)C1=O [PP1132] | 0.066 nM | A (a compound having 10 or more and less than 20 is denoted as A) | B (a compound having 3 or more and less than 10 is denoted as B) | 86.8 nM |  |  |  |  |  |
| CCCO[C@@H]1C[C@H]2C(=O)NC3(CC(C)(C)C3)C(=O)N(C)[C@@H](C3CCCC3)C(=O)N(C)[C@H](C(=O)N(C)CC)CC(=O)N(C)[C@@H](COCC)C(=O)N[C@@H]([C@@H](C)CC)C(=O)N(C3CC3)CC(=O)N(C)[C@H]3C/C=C\CCN(C3=O)[C@@H](Cc3ccc(C(F)(F)F)cc3)C(=O)N(C)CC(=O)N[C@@H](CCc3cc(F)c(C(F)(F)F)c(F)c3)C(=O)N2C1 [PP3470] |  |  |  |  | 0.61 nM | A (a compound having 10 or more and less than 20 is denoted as A) | A (a compound having 10 or more and less than 20 is denoted as A) | 12.2 nM |  |
| CCO[C@@H]1C[C@H]2C(=O)NC3(CCCC3)C(=O)N(C)[C@@H](C3CCCC3)C(=O)N(C)[C@H](C(=O)N(C)C)CC(=O)N(C)[C@@H](CC)C(=O)N[C@@H]([C@@H](C)CC)C(=O)N(C)CC(=O)N(C)[C@H]3C[C@@H](C)[C@@H](C)CN(C3=O)[C@@H](Cc3ccc(C(F)(F)F)cc3)C(=O)N(C)CC(=O)N[C@@H](CCc3ccc(C(F)(F)F)c(Cl)c3)C(=O)N2C1 [PP1358] | 0.03 nM | A (a compound having 10 or more and less than 20 is denoted as A) | B (a compound having 3 or more and less than 10 is denoted as B) | 4.1 nM |  |  |  |  |  |
| CCC[C@H]1C(=O)N[C@@H](C2CCCC2)C(=O)N(C)CC(=O)N(C)[C@H]2C/C=C\CCN(C2=O)[C@@H](Cc2ccc(C)cc2)C(=O)N(C)CC(=O)N[C@@H](CCc2cc(F)c(C(F)(F)F)c(F)c2)C(=O)N2CC3(CC3)C[C@H]2C(=O)N(C)C2(CCC2)C(=O)N(C)[C@@H](C(CC)CC)C(=O)N(C)[C@H](C(=O)N(C)C)CC(=O)N1C [PP3308] |  |  |  |  | 0.18 nM | A (a compound having 10 or more and less than 20 is denoted as A) | B (a compound having 3 or more and less than 10 is denoted as B) | 17.2 nM |  |
| CC[C@H](C)[C@@H]1NC(=O)[C@H](COC)N(C)C(=O)C[C@@H](C(=O)N(C)C)N(C)C(=O)[C@H](C2CCCC2)N(C)C(=O)C2(CC(C)(C)C2)NC(=O)[C@@H]2C[C@@H](OC3CCC3)CN2C(=O)[C@H](CCc2cc(F)c(C(F)(F)F)c(F)c2)NC(=O)CN(C)C(=O)[C@H](CC2CCC(F)(F)CC2)N2CC/C=C\C[C@@H](C2=O)N(C)C(=O)CN(C2CC2)C1=O [PP2622] |  |  |  |  |  | A (a compound having 10 or more and less than 20 is denoted as A) | B (a compound having 3 or more and less than 10 is denoted as B) | 43.8 nM | 0.53 nM |
| CCCO[C@@H]1C[C@H]2C(=O)NC3(CC(C)(C)C3)C(=O)N(C)[C@@H](C3CCCC3)C(=O)N(C)[C@H](C(=O)N(C)CC)CC(=O)N(C)[C@@H](COCC)C(=O)N[C@@H]([C@@H](C)CC)C(=O)N3C[C@@H](F)C[C@H]3C(=O)N(C)[C@H]3C/C=C\CCN(C3=O)[C@@H](Cc3ccc(C)cc3)C(=O)N(C)CC(=O)N[C@@H](CCc3cc(F)c(C(F)(F)F)c(F)c3)C(=O)N2C1 [PP3461] |  |  |  |  | 0.35 nM | A (a compound having 10 or more and less than 20 is denoted as A) | A (a compound having 10 or more and less than 20 is denoted as A) | 19.1 nM |  |
| CCO[C@H](C)[C@@H]1NC(=O)[C@H](CC(C)C)N(C)C(=O)C[C@@H](C(=O)N(C)CC)N(C)C(=O)[C@H](C2CCCC2)N(C)C(=O)C2(CC(C)(C)C2)NC(=O)[C@@H]2C[C@H](C)CN2C(=O)[C@H](CCc2ccc(C(F)(F)F)c(OC)c2)NC(=O)CN(C)C(=O)[C@H](Cc2ccc(C)cc2)N2CC/C=C\C[C@@H](C2=O)N(C)C(=O)CN(C)C1=O [PP2413] |  |  |  |  |  | A (a compound having 10 or more and less than 20 is denoted as A) | A (a compound having 10 or more and less than 20 is denoted as A) | 115 nM | 0.25 nM |

— patent publication EP4603105A1, “PHARMACEUTICAL COMPOSITION CONTAINING CYCLIC COMPOUND HAVING SELECTIVE KRAS INHIBITORY EFFECT AGAINST HRAS AND NRAS” (CHUGAI SEIYAKU KABUSHIKI KAISHA, priority 2022, dated 2024)
